Values quoted from earlier work, collected in patent US20160115147A1, “PRO-DRUG COMPOUNDS” (Proximagen Limited, priority 2013, published 2016).

Experiments:
[1] = system: unique stereo-selective site in rat brain
[2] = system: unique stereo-selective site in human brain

binding affinity to unique stereo-selective site [1]: high affinity
binding affinity to unique stereo-selective site [2]: high affinity
SMILES: CC(=O)c1ccc2c(c1)[C@H](NC(=O)c1ccc(F)c(Cl)c1)[C@H](O)C(C)(C)O2 [Tonabersat]
